Test results: US6291677A, “Compounds having activity as inhibitors of cytochrome P450RAI” (Allergan Sales, Inc., priority 2000, dated 2001)
Each block holds one compound with its values, some of them ahead of it.

Key:
[1] = system: psoriasis; settings: treatment with liarozole; cited from earlier work
[2] = system: RARβ; assay: chimeric receptor transactivation assay, RARβ; type: cell-based; settings: unit assumed
Text: Assays described below measure the ability of a compound to bind to, and/or activate various retinoid receptor subtypes. When in these assays a compound binds to a given receptor subtype and activates the transcription of a reporter gene through that subtype, then the compound is considered an agonist of that receptor subtype. […] In the below described assays the ability of the compounds to bind to RARα, RARβ, RARγ,RXRα, RXRβ and RXRγ receptors, and the ability or inability of the compounds to activate transcription of a reporter gene through these receptor subtypes can be tested.
The results obtained in this assay are expressed in EC50 numbers, as they are also in the chimeric receptor transactivation assay. The results of ligand binding assay are expressed in Kd numbers.

[3] = molecular target: T1, RARα (Homo sapiens, UniProt P10276); assay: ligand binding assay, RARα; settings: read-out: Kd RAR α
T1 sequence (P10276 1-462): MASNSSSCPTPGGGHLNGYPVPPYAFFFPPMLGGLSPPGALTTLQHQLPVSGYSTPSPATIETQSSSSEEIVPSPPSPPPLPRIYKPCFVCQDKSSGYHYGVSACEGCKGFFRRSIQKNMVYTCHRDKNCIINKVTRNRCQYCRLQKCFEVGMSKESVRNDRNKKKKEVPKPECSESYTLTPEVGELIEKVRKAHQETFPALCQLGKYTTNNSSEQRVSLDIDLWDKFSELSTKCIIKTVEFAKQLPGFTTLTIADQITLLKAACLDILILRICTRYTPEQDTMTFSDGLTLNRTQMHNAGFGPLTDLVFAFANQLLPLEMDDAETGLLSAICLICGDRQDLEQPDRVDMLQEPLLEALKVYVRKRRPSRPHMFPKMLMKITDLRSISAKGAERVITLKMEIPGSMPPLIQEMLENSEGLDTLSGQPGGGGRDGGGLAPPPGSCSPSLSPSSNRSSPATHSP
Description: Assays described below measure the ability of a compound to bind to, and/or activate various retinoid receptor subtypes. […] In the below described assays the ability of the compounds to bind to RARα, RARβ, RARγ,RXRα, RXRβ and RXRγ receptors, and the ability or inability of the compounds to activate transcription of a reporter gene through these receptor subtypes can be tested.

[4] = system: skin of hairless mice; assay: topical skin irritation test in hairless mice; type: in vivo, female hairless mice (Crl:SKH1-hrBR); settings: once daily days 1 through 5, mean±SD
Text: Mice were housed individually throughout the dosing period.
Doses are disclosed as nmol/25 g.
The grading scale used is as follows:
Values can range from 0-9.
Values can range from 0-8.

[5] = system: skin; settings: humans; topical ATRA, oral 13-cis RA and etretinate; cited from earlier work
[6] = molecular target: T2, P450RAI-1 (Homo sapiens, UniProt O43174); assay: cell-based; settings: intact HeLa, P450RAI-1 stably transfected, [3H]-RA, 3 hours at 37° C; read-out: P450RAI INHIBITION DATA INTACT HELA IC50
T2 sequence (O43174 1-497): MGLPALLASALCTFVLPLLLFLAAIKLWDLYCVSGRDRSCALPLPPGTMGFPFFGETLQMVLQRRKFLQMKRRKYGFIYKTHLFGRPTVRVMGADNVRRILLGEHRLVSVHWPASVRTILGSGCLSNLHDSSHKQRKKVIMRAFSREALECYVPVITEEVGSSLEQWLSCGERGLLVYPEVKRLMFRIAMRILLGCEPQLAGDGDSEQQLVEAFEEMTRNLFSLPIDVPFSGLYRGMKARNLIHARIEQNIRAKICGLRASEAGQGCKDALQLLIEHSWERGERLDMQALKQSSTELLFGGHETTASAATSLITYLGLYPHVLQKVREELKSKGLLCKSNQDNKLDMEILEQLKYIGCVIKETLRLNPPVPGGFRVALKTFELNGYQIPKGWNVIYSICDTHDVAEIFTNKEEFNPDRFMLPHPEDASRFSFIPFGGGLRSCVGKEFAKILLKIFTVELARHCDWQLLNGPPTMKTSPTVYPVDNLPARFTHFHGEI
Description: FIG. 1 is a schematic representation of the P450RAI cell based assay utilized to evaluate the ability of the compounds of the invention to inhibit the Cytochrome P450RAI enzyme.
P450RAI-1 Cell-Based Inhibitor Assay:
P450RAI-1 stably transfected HeLa cells are maintained in […] tissue culture dishes in Modified Eagle's Medium (MEM) containing 10% Fetal Bovine Serum (FBS) and 100 μg/ml hygromycin. Exponentially growing cells are harvested by incubating in trypsin. Cells are then washed with 1× Phosphate Buffered Saline (PBS) and plated in a 48-well plate at 5×10^5 cells in 0.2 ml MEM medium containing 10% FBS and 0.05 μCi [^3 H]-RA in the presence or absence of increasing concentrations of the test compounds. The compounds are diluted in 100% DMSO and then added in triplicate wells at either 10, 1 or 0.1 μM final concentration. As a positive control for RA metabolism inhibition, cells are also incubated with ketoconazole at 100, 10 and 1 μM. Cell are incubated for 3 hours at 37° C. […] The water soluble radioactivity is quantified using a β-scintillationcounter. IC50 values represent the concentration of inhibitor required to inhibit all-trans-RA metabolism by 50 percent and are derived manually from log-transformed data.

SMILES: Clc1cccc(C(c2ccc3[nH]cnc3c2)n2ccnc2)c1 (stereo not shown) [liarozole]
- retinoid-like effects, amelioration of psoriasis [1]: effects similar to treatment by retinoids, for example amelioration of psoriasis

SMILES: CN(C1CC1)C1CCC(C)(C)c2cc(C#Cc3ccc(CC(=O)O)cc3)ccc21 (stereo not shown) [Compound 8, 4-[(5-(Cyclopropyl-methyl-amino)-8,8-dimethyl-5,6,7,8-tetrahydro-naphthalene-2-yl-ethynyl)-phenyl]-acetic acid]
- (EFFICACY) RAR β [2]: 96%
- Kd [3]: 10 µM
- Cutaneous Toxicity Score (Blackjack Score) ([4]; 100 nmole): 5 ± 2
- Cutaneous Toxicity Score (Blackjack Score) ([4]; 300 nmole): 8 ± 3
- Cutaneous Toxicity Score (Blackjack Score) ([4]; 1000 nmole): 12 ± 1

SMILES: CC1=C(/C=C/C(C)=C/C=C/C(C)=C\C(=O)O)C(C)(C)CCC1 [13-cis RA]
- skin irritation [5]: substantial skin irritation in humans

SMILES: CCOC(=O)/C=C(C)/C=C/C=C(C)/C=C/c1c(C)cc(OC)c(C)c1C [etretinate]
- skin irritation [5]: substantial skin irritation in humans

- IC50 [6]: 0.18 µM
SMILES: Cc1cc(C#Cc2ccc(CC(=O)O)cc2)ccc1Cn1ccnc1 [Compound 121, [4-(4-Imidazol-1-yl-methyl-3-methyl-phenylethynyl)-phenyl]-acetic acid]

SMILES: CC1=C(/C=C/C(C)=C/C=C/C(C)=C/C(=O)O)C(C)(C)CCC1 [all-trans-retinoic acid]
- skin irritation [5]: substantial skin irritation in humans

SMILES: CC1(C)CC(C)(C)c2cc(C#Cc3ccc(CC(=O)O)c(F)c3)cc(C3CC3)c2O1 [Compound 38, [4-(8-Cyclopropyl-2,2,4,4-tetramethyl-chroman-6-yl-ethynyl)-2-fluorophenyl]acetic acid]
- Kd [3]: 10 µM
- Cutaneous Toxicity Score (Blackjack Score) ([4]; 100 nmole): 1 ± 1
- Cutaneous Toxicity Score (Blackjack Score) ([4]; 1000 nmole): 10 ± 1
